Experimental data from PubChem BioAssay AID248 (DTP/NCI, 2004).
“And” between values parts separate entries of the source, which are not always exact repeats. Identical values can stand only once. Inconclusive results and toxic doses are left out. Rule as the data show it: active = T/C of 150% or more; inactive = T/C below 125%.

Test system: L1210 leukemia ip in BDF1 mice, survival T/C
Assay: NCI In Vivo Anticancer Drug Screen. Data for tumor model L1210 Leukemia (intraperitoneal) in B6D2F1 (BDF1) mice
Details: endpoint: mean survival time, higher = longer survival
In short: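 In this screen, tumor-bearing mice given compound are compared to those given vehicle, and their survival values are reported as a treated-to-control quotient.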

[1] = dose: 100.0 mg/kg/injection, schedule: Q01DX009 (ip), vehicle: Klucel (hydroxypropylcellulose) (HPC)
[2] = dose: 200.0 mg/kg/injection, schedule: Q01DX009 (ip), vehicle: Klucel (hydroxypropylcellulose) (HPC)
[3] = dose: 400.0 mg/kg/injection, schedule: Q01DX009 (ip), vehicle: Klucel (hydroxypropylcellulose) (HPC)
[4] = dose: 100.0 mg/kg/injection, schedule: Q01DX009 (ip), vehicle: saline with Tween-80
[5] = dose: 100.0 mg/kg/injection, schedule: Q04DX003 (ip), vehicle: saline with Tween-80
[6] = dose: 100.0 mg/kg/injection, schedule: Q01DX009 (ip), vehicle: saline
[7] = dose: 200.0 mg/kg/injection, schedule: Q01DX009 (ip), vehicle: saline
[8] = dose: 400.0 mg/kg/injection, schedule: Q01DX009 (ip), vehicle: saline
[9] = dose: 100.0 mg/kg/injection, schedule: Q01DX001 (ip), vehicle: carboxymethylcellulose (CMC)
[10] = dose: 200.0 mg/kg/injection, schedule: Q01DX001 (ip), vehicle: carboxymethylcellulose (CMC)
[11] = dose: 400.0 mg/kg/injection, schedule: Q01DX001 (ip), vehicle: carboxymethylcellulose (CMC)
[12] = dose: 75.0 mg/kg/injection, schedule: Q01DX001 (ip), vehicle: saline with Tween-80
[13] = dose: 150.0 mg/kg/injection, schedule: Q01DX001 (ip), vehicle: saline with Tween-80
[14] = dose: 300.0 mg/kg/injection, schedule: Q01DX001 (ip), vehicle: saline with Tween-80
[15] = dose: 100.0 mg/kg/injection, schedule: Q04DX003 (ip), vehicle: Klucel (hydroxypropylcellulose) (HPC)
[16] = dose: 200.0 mg/kg/injection, schedule: Q04DX003 (ip), vehicle: Klucel (hydroxypropylcellulose) (HPC)

Measured: T/C

CCCN(CCC)C(=O)CCN1CC1
inactive: dose: 5.0 mg/kg/injection, schedule: Q01DX001 (ip), vehicle: carboxymethylcellulose (CMC) 97 % of control | dose: 10.0 mg/kg/injection, schedule: Q01DX001 (ip), vehicle: carboxymethylcellulose (CMC) 100 % of control | dose: 20.0 mg/kg/injection, schedule: Q01DX001 (ip), vehicle: carboxymethylcellulose (CMC) 88 % of control | dose: 40.0 mg/kg/injection, schedule: Q01DX001 (ip), vehicle: carboxymethylcellulose (CMC) 103 % of control

Nc1ccn(C2OC(COC(c3ccccc3)(c3ccccc3)c3ccccc3)C(O)C2O)c(=O)n1 (stereo unspecified)
inactive: dose: 100.0 mg/kg/injection, schedule: Q01DX005 (ip), vehicle: saline 101 % of control | dose: 200.0 mg/kg/injection, schedule: Q01DX005 (ip), vehicle: saline 112 % of control

O=C(Nc1cccc(Cl)c1Cl)Oc1ccc2ccccc2c1
inactive: [1] 100 % of control | [2] 105 % of control | [3] 103 % of control

O=C(COc1ccc(Cl)cc1Cl)NC(O)C(Cl)(Cl)Cl (stereo unspecified)
inactive: [4] 94 % of control | [5] 100 % of control | dose: 200.0 mg/kg/injection, schedule: Q01DX009 (ip), vehicle: saline with Tween-80 87 % of control | dose: 200.0 mg/kg/injection, schedule: Q04DX003 (ip), vehicle: saline with Tween-80 97 % of control | dose: 400.0 mg/kg/injection, schedule: Q01DX009 (ip), vehicle: saline with Tween-80 89 % of control | dose: 400.0 mg/kg/injection, schedule: Q04DX003 (ip), vehicle: saline with Tween-80 94 % of control

NC(Cc1c[nH]c2cc(F)ccc12)C(=O)O (stereo unspecified)
inactive: dose: 100.0 mg/kg/injection, schedule: Q01DX009 (ip), vehicle: other 97 % of control | dose: 200.0 mg/kg/injection, schedule: Q01DX009 (ip), vehicle: other 96 % of control | dose: 400.0 mg/kg/injection, schedule: Q01DX009 (ip), vehicle: other 97 % of control

CC(=O)Nc1cccc(-c2nnc(C3CCCC(NC(C)=O)C3)nn2)c1 (stereo unspecified)
inactive: dose: 100.0 mg/kg/injection, schedule: Q01DX001 (ip), vehicle: saline 96 % of control | dose: 200.0 mg/kg/injection, schedule: Q01DX001 (ip), vehicle: saline 88 % of control | dose: 400.0 mg/kg/injection, schedule: Q01DX001 (ip), vehicle: saline 88 % of control

CC(=O)OC1CCC2(C)C(CCC3C4CC=C(C(C)=O)C4(C)CCC32)C1 (stereo unspecified)
inactive: dose: 100.0 mg/kg/injection, schedule: Q01DX009 (sc), vehicle: steriod suspending solution 94 % of control | dose: 100.0 mg/kg/injection, schedule: Q04DX003 (sc), vehicle: steriod suspending solution 115 % of control | dose: 200.0 mg/kg/injection, schedule: Q01DX009 (sc), vehicle: steriod suspending solution 109 % of control | dose: 200.0 mg/kg/injection, schedule: Q04DX003 (sc), vehicle: steriod suspending solution 103 % of control | dose: 400.0 mg/kg/injection, schedule: Q01DX009 (sc), vehicle: steriod suspending solution 98 % of control | dose: 400.0 mg/kg/injection, schedule: Q04DX003 (sc), vehicle: steriod suspending solution 105 % of control

COc1ccc(CCN(C)C2c3ccccc3C=Cc3ccccc32)cc1OC
inactive: dose: 100.0 mg/kg/injection, schedule: Q01DX001 (ip), vehicle: saline with Tween-80 103 % of control | dose: 200.0 mg/kg/injection, schedule: Q01DX001 (ip), vehicle: saline with Tween-80 107 % of control | dose: 400.0 mg/kg/injection, schedule: Q01DX001 (ip), vehicle: saline with Tween-80 98 % of control

O=C(O)c1ccccc1C(=O)c1cccs1
inactive: [6] 94 % of control | dose: 100.0 mg/kg/injection, schedule: Q04DX003 (ip), vehicle: other 113 % of control | [7] 97 % of control | dose: 200.0 mg/kg/injection, schedule: Q04DX003 (ip), vehicle: other 105 % of control | [8] 96 % of control | dose: 400.0 mg/kg/injection, schedule: Q04DX003 (ip), vehicle: other 94 % of control

CC(=O)c1ccc(OCc2ccccc2)cc1O
inactive: [6] 111 % of control | [7] 100 % of control | [8] 100 % of control

Cc1cccnc1N1CCNC1=O
inactive: dose: 25.0 mg/kg/injection, schedule: Q04DX003 (ip), vehicle: saline 92 % of control | dose: 50.0 mg/kg/injection, schedule: Q04DX003 (ip), vehicle: saline 103 % of control | dose: 100.0 mg/kg/injection, schedule: Q04DX003 (ip), vehicle: saline 96 % of control and 117 % of control

CCc1ccc(N=Nc2ccccc2)cc1
inactive: [9] 105 % of control | [10] 96 % of control | [11] 105 % of control

NC(=S)Nc1ccccn1
inactive: dose: 25.0 mg/kg/injection, schedule: Q01DX009 (ip), vehicle: saline with Tween-80 103 % of control | dose: 50.0 mg/kg/injection, schedule: Q01DX009 (ip), vehicle: saline with Tween-80 90 % of control | [4] 101 % of control | [5] 98 % of control

[O]=[Sb]([OH])([c]1ccc(Cl)cc1)[c]1ccc(Cl)cc1
inactive: dose: 75.0 mg/kg/injection, schedule: Q01DX001 (ip), vehicle: saline 116 % of control

C1CCCC2(CC1)CCCCC2
inactive: [12] 94 % of control | [13] 90 % of control | [14] 95 % of control

NC(N)=N/N=C/N/N=C/c1ccccc1O
inactive: dose: 60.0 mg/kg/injection, schedule: Q01DX Z (oral), vehicle: carboxymethylcellulose (CMC) 91 % of control | dose: 120.0 mg/kg/injection, schedule: Q01DX Z (oral), vehicle: carboxymethylcellulose (CMC) 91 % of control | dose: 240.0 mg/kg/injection, schedule: Q01DX Z (oral), vehicle: carboxymethylcellulose (CMC) 100 % of control | dose: 480.0 mg/kg/injection, schedule: Q01DX Z (oral), vehicle: carboxymethylcellulose (CMC) 100 % of control

Cc1cc(C2=NCCN2)ccc1NC(=O)c1ccc(C(=O)Nc2ccc(C3=NCCN3)cc2C)cc1
inactive: dose: 15.0 mg/kg/injection, schedule: Q01DX Z (ip), vehicle: saline 100 % of control | dose: 30.0 mg/kg/injection, schedule: Q01DX Z (ip), vehicle: saline 106 % of control | dose: 60.0 mg/kg/injection, schedule: Q01DX Z (ip), vehicle: saline 110 % of control

Cc1cc(C)c(/C=C2\CCNC2=O)c(C)c1
inactive: dose: 50.0 mg/kg/injection, schedule: Q01DX001 (ip), vehicle: carboxymethylcellulose (CMC) 96 % of control | [9] 90 % of control | [10] 100 % of control | [11] 105 % of control

CCCCCCCCC(CCCCCCCC)CC1CC2CC1C1CCCC21 (stereo unspecified)
inactive: [12] 92 % of control | [13] 98 % of control | [14] 95 % of control

CC(=O)Nc1nccs1
inactive: dose: 50.0 mg/kg/injection, schedule: Q01DX009 (ip), vehicle: Klucel (hydroxypropylcellulose) (HPC) 94 % of control | [1] 97 % of control | [15] 97 % of control | [16] 97 % of control

Cc1c(Cl)cccc1NC(=O)Nc1ccccc1Cl
inactive: [1] 104 % of control | [15] 92 % of control | [2] 103 % of control | [16] 91 % of control | [3] 100 % of control | dose: 400.0 mg/kg/injection, schedule: Q04DX003 (ip), vehicle: Klucel (hydroxypropylcellulose) (HPC) 92 % of control

COP(=O)(OC)C1C2CC3C(C2)C31 (stereo unspecified)
inactive: dose: 100.0 mg/kg/injection, schedule: Q04DX003 (ip), vehicle: acetone 103 % of control | dose: 200.0 mg/kg/injection, schedule: Q04DX003 (ip), vehicle: acetone 97 % of control | dose: 400.0 mg/kg/injection, schedule: Q04DX003 (ip), vehicle: acetone 100 % of control

CSc1nc2ncncc2c(=O)[nH]1
inactive: dose: 100.0 mg/kg/injection, schedule: Q01DX001 (ip), vehicle: Klucel (hydroxypropylcellulose) (HPC) 96 % of control | [1] 98 % of control | dose: 200.0 mg/kg/injection, schedule: Q01DX001 (ip), vehicle: Klucel (hydroxypropylcellulose) (HPC) 100 % of control | [2] 102 % of control | dose: 400.0 mg/kg/injection, schedule: Q01DX001 (ip), vehicle: Klucel (hydroxypropylcellulose) (HPC) 101 % of control | [3] 95 % of control
